From patent publication US10228365B2, “Method for measuring carbohydrate metabolism ability, and composition for use in said method” (priority 2012, dated 2019)

Assays:
[1] = system: glucose metabolism ability; conditions: rat, in vivo, iv
Method: Fasted rats (male, SD rats) as experimental animals were divided into four groups (n=4 per group). The above-prepared ^13C-glucose solutions were individually intravenously administered to the rats in each group (1-^13-Glc-administration group, 2-^13C-Glc-administration group, 3-^13C-Glc-administration group, and U-^13-Glc-adrainistration group) in an amount of 1 mL/kg. Expired air was collected before the administration of each ^13C-glucose solution (0 minutes) and at each point in time (10, 20, 30, 40, 50, 60, 80, 100, and 120 minutes) after the administration of each ^13C-glucose solution, Δ^13C(‰) was determined with a mass spectrometer for expired air analysis (ABCA: produced by Sercon) from the concentration of ^13CO2 excreted in the expired air.
The Δ^13C(‰) was determined by measuring the ^13CO2/^12CO2 concentration ratio (δ^13C value) in the expired air before the administration of each ^13C-glucose solution (0 minutes) and in the expired air at each point in time for collecting the expired air (t minutes) after the administration of each ^13C-glucose solution, and calculating Δ^13C(‰) from the difference between the δ^13C value (δ^13Ct) at each collection point in time (t) and the δ^13C value (δ^13C0) before the administration (δ^13Ct−δ^13C0) (the same applies to the below-described Experimental Examples).

[2] = system: glucose metabolism ability; experiment: Breath test under fasting and glucose-loaded conditions; format: in vivo, rats (OLETF, LETO)
Method: OLETF rats, which are diabetic animal models, were used as experimental animals, and LETO rats were used as a control. More specifically, after being fasted for 20 hours, Group 1 (control group: […], male, n=5) and Group 2 (diabetes group; OLETF rats, male, n=6) were subjected to the following test.
An aqueous U-^13C-glucose solution (50 μmol/4 mL/kg) was orally administered to Group 1 (control group) and Group 2 (diabetes group) under fasting conditions. In each group, expired air was collected before the U-^13C-glucose administration (0 minutes) and at each point in time (10, 20, 30, 40, 50, 60, 80, 100, and 120 minutes) after the U-^13C-glucose administration. Δ^13C(‰) was determined with a mass spectrometer for expired air analysis (ABCA: produced by Sercon) from the concentration of ^13CO2 excreted in the expired air.
• (2-2-1) An aqueous glucose solution (450 mg/4 mL/kg) and an aqueous U-^13C-glucose solution (50 μmol/4 mL/kg) were orally administered simultaneously to the experimental animals of (1), i.e., Group 1 (control group) and Group 2 (diabetes group). As in (2-1), expired air was collected in each group before the U-^13C-glucose administration (0 minutes) and at each, point in time (10, 20, 30, 40, 50, 60, 80, 100, and 120 minutes) after the U-^13C-glucose administration. Δ^13C(‰) was determined from the concentration of ^13CO2 excreted in the expired air. […]

[3] = system: glucose metabolism ability; experiment: Evaluation of treatment effect of a therapeutic agent for diabetes with U-13C-glucose breath test; format: in vivo, ZDF rats; conditions: 300 mg/kg oral for three days; for expired air pattern (changes in the Δ13C(‰)) after vs before administration: non-fasting, FIG. 12
Method: Three groups of ZDF rats (Group A: healthy group (n=4), Group B: diabetes severe onset group (n=6), and Group C: diabetes moderate onset group (n=6)) were used as experimental animals. In the experiment, these ZDF rats were allowed free access to water and feed (containing saccharide, fat, and protein) (MF: Oriental Yeast Co., Ltd.). More specifically, the following experiment was performed under non-fasting conditions.
Metformin (Wako Pure Chemical Industries, Ltd., which is an active ingredient of biguanide therapeutic agents for diabetes (generic name: Melbin), was orally administered to the rats of these groups in an amount of 300 mg/kg every morning for three days. A U-^13C-glucose solution prepared by the method described in (1) of Experimental Example 1 was intravenously administered 3 hours after the administration of metformin on day 3.
Expired air was collected in the rats of each group before the U-^13-glucose administration (0 minutes) and at each point in time (10, 20, 30, 40, 50, 60, 80, 100, and 120 minutes) after the U-^13C-glucose administration. Δ^13(‰) was determined with a mass spectrometer for expired air analysis (ABCA: produced by Sercon) from the concentration of ^13CO2 excreted in the expired air.

[4] = system: glucose metabolism ability; experiment: Evaluation of treatment effect after administration of insulin with 1-13C-glucose breath test; format: in vivo, rats (Wistar; conditions: STZ rats, FIG. 13
Method: A control group (Wistar rats, male, n=3) and a type 1 diabetes group (STZ rats, male, n=3) were used as experimental animals. In the experiment, these rats were allowed free access to water and feed (containing saccharide, fat, and protein) (MF: Oriental Yeast Co., Ltd.). More specifically, the following experiment was performed under non-fasting conditions.
Rats one week after STZ (streptosocin: SIGMA) were intravenously administered in an amount of 65 mg/mL/kg was used as the type 1 diabetes group (STZ rats).
Insulin (SIGMA) was subcutaneously administered to the type 1 diabetes group in an amount of 30 U/body. […] Expired air was collected in the rats of the groups (control group, type 1 diabetes group, insulin-administered 4 h-diabetes group, and insulin-administered 24 h-diabetes group) before the 1-^13C-glucose administration (0 minutes) and at each point in time (10, 20, 30, 40, 50, 60, 80, 100, and 120 minutes) after the 1-^13C-glucose administration. Δ^13C(‰) was determined with a mass spectrometer for expired air analysis (ABCA: produced by Sercon) from the concentration of ^13CO2 excreted in the expired air.

OC[C@H]1OC(O)[C@H](O)[13C@@H](O)[C@@H]1O (stereo partly drawn) [3-^13C-glucose]
Δ13C(‰) in the expired air up to 30 minutes after the glucose solution administration (rank among 13C-glucoses) [1]: highest

OC[C@H]1OC(O)[C@H](O)[C@@H](O)[C@@H]1O (stereo partly drawn) [U-^13C-glucose]
difference between the Δ13C(‰) value of Group 1 (control group) and Group 2 (diabetes group) ([2]; fasting conditions, oral 50 μmol/4 mL/kg, FIG. 6): small | difference in the expired air response between Group 1 (control group) and Group 2 (diabetes group) ([2]; rat, in vivo): further widened | expired air pattern of Group 1 (control group) compared with Group 2 (diabetes group) ([2]; rat, in vivo): significantly high

CN(C)C(=N)N=C(N)N [therapeutic agent for diabetes, Metformin]
expired air pattern (changes in the Δ13C(‰)) after vs before administration ([3]; Group B diabetes severe onset): higher values | expired air pattern (changes in the Δ13C(‰)) after vs before administration ([3]; Group C diabetes moderate onset): higher values | glucose metabolism ability ([3]; diabetes onset groups B and C): enhanced

insulin: Insulin (SIGMA), subcutaneously administered
Δ13C(‰) compared with control group ([4]; 4 hours after 30 U/body subcutaneous): almost the same as that of the control group | expired air pattern (change in the Δ13C(‰)) ([4]; 24 hours after 30 U/body subcutaneous): low value
